What all share (assay type): cell-based
Test [1] deals with B16F10 (malignant melanoma). In words: Antiproliferative activity (CCK-8 cell viability), B16F10. Conditions: Mus musculus, 72 h, read-out: Antiproliferative activity in cancerous cells, B16F10 (inhibition of cell growth); for inhibition at 3.3 µM: B16-F10, Compound concentration: 3.3 μM; for inhibition at 10 µM: B16-F10, Compound concentration: 10 μM. Summed up:
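Attached B16F10 cells in 96-well plates were incubated with compound at 37° C for 72 h, followed by 10 μL CCK-8 reagent per well and a further 4 h incubation. A multi-well plate reader measured absorbance at 450 nm. Percent viability across replicates was calculated against DMSO vehicle-treated cells.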

Another test relates to HepG2 (liver cancer). The experiment in a line: Antiproliferative activity (CCK-8 cell viability), HepG2. The note with it: Homo sapiens, 72 h, read-out: Antiproliferative activity in cancerous cells, HepG2 (inhibition of cell growth); for inhibition at 3.3 µM: Compound concentration: 3.3 μM; for inhibition at 10 µM: Compound concentration: 10 μM. Summed up: (§1)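 Cells were seeded at 2,000-5,000/well (HeLa in MEM, HepG2 and SW480 in DMEM, A549 in F-12K, all with 10% FBS) and treated with compound at 3.3, 10 or 30 μM for 72 h at 37° C. CCK-8 was added for 4 h, absorbance was read at 450 nm, and viability was expressed relative to DMSO-treated wells.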

A further test deals with SW480 (colon cancer). The experiment in a line: Antiproliferative activity (CCK-8 cell viability), SW480. Conditions: Homo sapiens, 72 h, read-out: Antiproliferative activity in cancerous cells, SW480 (inhibition of cell growth); for inhibition at 3.3 µM: Compound concentration: 3.3 μM; for inhibition at 10 µM: Compound concentration: 10 μM. Summed up: as §1
Test [2] deals with MDA-MB-231 (breast cancer). The experiment in a line: Antiproliferative activity (CCK-8 cell viability), MDA-MB-231. Conditions: Homo sapiens, 72 h, read-out: Antiproliferative activity in cancerous cells, MDA-MB-231 (inhibition of cell growth); for inhibition at 3.3 µM: Compound concentration: 3.3 μM; for inhibition at 10 µM: Compound concentration: 10 μM. The method, boiled down:
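In this CCK-8 viability assay, MDA-MB-231 cells maintained in Dulbecco's modified Eagle's medium containing 10% fetal bovine serum were placed in 96-well plates (2,000-5,000 cells/well) and treated with compound for 72 h at 37° C. A 4 h incubation with 10 μL CCK-8 followed, plates were read at 450 nm, and viability was expressed against DMSO vehicle wells across replicates.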

The subject of test [3] is A549 (lung adenocarcinoma). In words: Antiproliferative activity (CCK-8 cell viability), A549. The note with it: Homo sapiens, 72 h, read-out: Antiproliferative activity in cancerous cells, A549 (inhibition of cell growth); for inhibition at 3.3 µM: Compound concentration: 3.3 μM; for inhibition at 10 µM: Compound concentration: 10 μM. The method, boiled down:
as §1

Test [4] has as its system alpha-smooth muscle actin (α-SMA). In words: Inhibition of TGF-β induced expression of alpha-smooth muscle actin (α-SMA) in CFSC cells (western blot). The note with it: compound at 10 μM, TGF-β (10 ng/mL), 24 hours, band intensity vs TGF-β only. Summed up: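 CFSC hepatic stellate cells in serum-free DMEM treated 24 h at 37 °C with compound at 10 μM plus TGF-β (10 ng/mL). α-SMA measured by Western blot with β-actin, ECL detection, densitometry. Percent inhibition is decrease in band intensity versus TGF-β-only cells.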

In another test the test system is HeLa (cervical cancer). In words: Antiproliferative activity (CCK-8 cell viability), HeLa. The note with it: Homo sapiens, 72 h, read-out: Antiproliferative activity in cancerous cells, HELA (inhibition of cell growth); for inhibition at 3.3 µM: Compound concentration: 3.3 μM; for inhibition at 10 µM: Compound concentration: 10 μM. Summed up:
as §1

For test [5], the system named is A431 (epidermoid carcinoma). The experiment in a line: Antiproliferative activity (CCK-8 cell viability), A431. The note with it: Homo sapiens, 72 h, read-out: Antiproliferative activity in cancerous cells, A431 (inhibition of cell growth); for inhibition at 3.3 µM: A-431, Compound concentration: 3.3 μM; for inhibition at 10 µM: A-431, Compound concentration: 10 μM. The method, boiled down: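 Cell viability of compound-treated A431 cells was measured with a Cell Counting Kit-8. Each well received 10 μL of CCK-8 after 72 h of compound exposure, followed by 4 h incubation at 37° C. and a 450 nm plate-reader measurement. Percent viability was calculated relative to DMSO controls across replicates.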

What is called inhibition is the drop in the measured response relative to a control, in per cent.

Where only a bound is given, the exact number is not on record here.

For the compound `CC1=C(CC(=O)O)c2cc(F)cc(F)c2/C1=C\c1cccc(COc2ccccc2)c1` [B7, (Z)-2-(5,7-Difluoro-2-methyl-1-(3-(phenoxymethyl)benzylidene)-1H-inden-3-yl)-acetic acid], the inhibition at 3.3 µM was less than 30% in test [1]; 30 to 50% in the test on HepG2 (liver cancer); not below 50% with SW480 (colon cancer); not below 50% in test [2]; less than 30% in test [3]; not below 50% in the test on HeLa (cervical cancer). In addition, in test [5], the inhibition at 3.3 µM fell in the range of 30 to 50%. Moreover, the inhibition at 10 µM in test [1] is 30 to 50%; in the test on HepG2 (liver cancer), 30 to 50%; in the test on SW480 (colon cancer), not below 50%; in test [2] it was not below 50%; in test [3], 30 to 50%; in test [4], more than 80%. Moreover, the inhibition at 10 µM is 30 to 50% with HeLa (cervical cancer) and not below 50% in test [5].

As to `O=C(O)CC1=C(Cc2ccc(F)cc2)/C(=C/c2ccc(Oc3ccc(F)cc3)cc2)c2ccc(F)cc21` [C14, (Z)-2-(5-Fluoro-2-(4-fluorobenzyl)-1-(4-(4-fluorophenoxy)benzylidene)-1H-inden-3-yl)acetic acid], the inhibition at 3.3 µM in test [1] was not below 50%; in the test on HepG2 (liver cancer), not below 50%; with SW480 (colon cancer), less than 30%; in test [2], not below 50%; in test [3] it was less than 30%; with HeLa (cervical cancer) it was not below 50%. The inhibition at 3.3 µM in test [5] is not below 50%. For the same compound, the inhibition at 10 µM in test [1] was not below 50%; in the test with HepG2 (liver cancer), not below 50%; in the test with SW480 (colon cancer), not below 50%; in test [2], not below 50%; in test [3], not below 50%; in test [4], more than 80%. In addition, the inhibition at 10 µM (in the test with HeLa (cervical cancer); in test [5]) was not below 50% throughout.

Consider `CCCC1=C(CC(=O)O)c2cc(F)ccc2/C1=C\c1ccc(Oc2ccc(F)cc2)cc1` [C8, (Z)-2-(5-Fluoro-1-(4-(4-fluorophenoxy)benzylidene)-2-propyl-1H-inden-3-yl)-acetic acid], for which the inhibition at 3.3 µM in test [1] was 30 to 50%; in the test with HepG2 (liver cancer) it was not below 50%; with SW480 (colon cancer) it was less than 30%; in test [2], not below 50%; in test [3] it was not below 50%; in the test with HeLa (cervical cancer) it was not below 50%. Further, in test [5], the inhibition at 3.3 µM is less than 30%. For the same compound, the inhibition at 10 µM in test [1] is not below 50%; in the test on HepG2 (liver cancer), not below 50%; with SW480 (colon cancer) it was not below 50%; in test [2], not below 50%; in test [3], not below 50%; in test [4], more than 80%. In addition, the inhibition at 10 µM (with HeLa (cervical cancer); in test [5]) was not below 50% in each case.

`CC1=C(CC(=O)O)c2c(F)cccc2/C1=C\c1cccc(Oc2ccccc2)c1` [C21, (Z)-2-(4-Fluoro-2-methyl-1-(3-phenoxybenzylidene)-1H-inden-3-yl)acetic acid]: the inhibition at 3.3 µM is less than 30% in test [1]; less than 30% with HepG2 (liver cancer); less than 30% in the test on SW480 (colon cancer); not below 50% in test [2]; 30 to 50% in test [3]; 30 to 50% with HeLa (cervical cancer). Besides, the inhibition at 3.3 µM in test [5] is less than 30%. Further, the inhibition at 10 µM is less than 30% in test [1]; 30 to 50% with HepG2 (liver cancer); less than 30% in the test on SW480 (colon cancer); not below 50% in test [2]; 30 to 50% in test [3]; less than 30% in test [4]. Further, the inhibition at 10 µM (in the test with HeLa (cervical cancer); in test [5]) was not below 50% in each case.

For the origin of these results see patent US20260184663A1, “INDENE COMPOUNDS, PHARMACEUTICAL COMPOSITIONS THEREOF, AND THEIR THERAPEUTIC APPLICATIONS” (NucMito Pharmaceuticals co. Ltd., priority 2022, published 2026).
